Key:
EGFR = target: T1, EGFR (Homo sapiens, UniProt P00533); assay: Inhibitory effect on tyrosine kinase activity of EGFR; type: biochemical; details: EGFR 40 ng/ml, ATP 10 μM, 30 min
T1 construct: purchased Invitrogen Company PV3872
Experimental: EGFR: Invitrogen Company, Catalogue No. PV3872
pGT (poly(glutamic acid-tyrosine)): Sigma-Aldrich Company, Catalogue No. P0275
The assay method is briefly described as follows.
3.1.1 At 4° C., 96-well microtiter plate was coated with 0.2 mg/mL pGT (as the substrate of enzyme) dissolved in PBS (phosphate buffer) overnight. Unbound pGT was washed away with a washing solution (0.05% Tween −20 in PBS), and the plate was dried in the air at room temperature for 2 h.
3.1.2 The enzyme reaction was performed in 50 μl reaction system containing 50 mM HEPEs (N-(2-hydroxyethyl)piperazine-N′-2-ethanesulfonic acid), pH 7.5, 0.01% BRIJ-35 (polyoxyethylene lauryl ether), 10 mM MgCl2, 1 mM EGTA (ethylene glycol bis(2-aminoethyl ether)tetraacetic acid), with certain concentrations of ATP (adenosine triphosphate) and kinase, and proceeded for 30 min at room temperature. The phosphate group at the terminal of ATP can be transferred to tyrosine residues of pGT by kinase catalysis so as to phosphorylate the tyrosine residues.
3.1.3 A final concentration of 1% SDS (sodium dodecyl sulfate) was added to terminate the reaction. The phosphorylated tyrosine residues were identified using pY-20. HRP at the end of the antibody enabled TMB to take on color. Then equal amount of 2 N H2SO4 was added to terminate the reaction. OD value, which is positively correlated with the phosphorylation degree of tyrosine residues of pGT, was measured at 450 nm
3.2 The concentrations of the kinase and substrate ATP were determined with reference to the literature “Optimization of a LanthaScreen Kinase assay for EGFR (ErbB1)”(https://tools.lifetechnologies.com/content/sfs/manuals/EGFR_LanthaScreen_actity_Europium.pdf), published by Invitrogen Corporation. The selection criteria for the final concentrations are that the concentration of kinase enabling the yield of the product within the linear range of the detection system and the concentration of ATP approching Km (Michaelis constant) value.
3.3.1 An appropriate amount of a compound was dissolved in DMSO (dimethylsulfoxide) to prepare 2 mM stock solution. Then the stock solution was diluted with DMSO to obtain a working solution with a 50-fold concentration of the highest test concentration, and subjected to a 4-fold gradient dilution to obtain seven concentrations in total.
5 μl 10-fold concentration of ATP dissolved in H2O (the concentration of ATP in EGFR assay is 100 μM, and in Her2 assay is 400 μM) was added to initiate the enzyme reaction followed by reaction at room temperature for 30 min
The mean value of inhibition rate and SD (standard deviation) were determined by duplicate wells. A curve with the concentration of the compound as abscissa and being in logarithmic distribution and the mean value of inhibition rate as ordinate was plotted and fitted using four-parameter logistic function.

EGFR (L858R) = target: T2, EGFR (L858R) (Homo sapiens, UniProt P00533, L858R); assay: Inhibitory action on tyrosine kinase activity of mutant EGFR (L858R), Caliper; type: biochemical; details: kinase 9 nM, ATP 111 μM, polypeptide 3 μM, 60 min
T2 construct: purchased Invitrogen Corporation PR7447A
T2 sequence (P00533 25-1210 L858R): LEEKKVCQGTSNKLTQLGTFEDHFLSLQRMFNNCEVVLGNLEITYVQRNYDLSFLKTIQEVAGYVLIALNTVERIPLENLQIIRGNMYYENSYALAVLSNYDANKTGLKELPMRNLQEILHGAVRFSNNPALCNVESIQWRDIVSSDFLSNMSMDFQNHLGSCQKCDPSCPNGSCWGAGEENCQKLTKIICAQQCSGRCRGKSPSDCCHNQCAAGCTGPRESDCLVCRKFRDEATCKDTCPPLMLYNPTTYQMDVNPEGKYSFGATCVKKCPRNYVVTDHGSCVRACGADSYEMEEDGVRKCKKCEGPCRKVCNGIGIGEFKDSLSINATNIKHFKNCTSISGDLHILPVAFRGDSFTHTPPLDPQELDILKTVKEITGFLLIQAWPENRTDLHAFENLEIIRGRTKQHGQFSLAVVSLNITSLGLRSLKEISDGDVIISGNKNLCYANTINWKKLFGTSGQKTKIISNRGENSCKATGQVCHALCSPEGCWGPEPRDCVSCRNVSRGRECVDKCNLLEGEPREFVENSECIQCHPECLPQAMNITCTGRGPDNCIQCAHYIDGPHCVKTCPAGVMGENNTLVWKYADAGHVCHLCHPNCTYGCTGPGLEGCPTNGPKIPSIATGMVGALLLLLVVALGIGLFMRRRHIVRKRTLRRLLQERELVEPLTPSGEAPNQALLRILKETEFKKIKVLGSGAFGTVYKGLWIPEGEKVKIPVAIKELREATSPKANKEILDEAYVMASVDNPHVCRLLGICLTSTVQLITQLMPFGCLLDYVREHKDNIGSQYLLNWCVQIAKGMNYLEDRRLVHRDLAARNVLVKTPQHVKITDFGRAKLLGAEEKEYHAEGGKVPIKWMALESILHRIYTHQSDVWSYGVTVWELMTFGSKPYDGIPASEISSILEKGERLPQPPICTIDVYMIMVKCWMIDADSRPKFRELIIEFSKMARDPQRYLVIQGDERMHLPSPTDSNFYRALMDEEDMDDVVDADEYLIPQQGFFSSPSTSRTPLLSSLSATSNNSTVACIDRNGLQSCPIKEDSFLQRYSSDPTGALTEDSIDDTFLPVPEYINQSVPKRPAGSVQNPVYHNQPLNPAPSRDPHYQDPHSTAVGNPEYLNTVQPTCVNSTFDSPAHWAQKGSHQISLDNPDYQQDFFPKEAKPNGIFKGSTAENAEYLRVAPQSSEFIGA
Experimental: EGFR(L858R): Invitrogen Corporation, catalogue No. PR7447A
(§1) P22(polypeptide substrate): GL Biochem Ltd., catalogue No. 112393
(§2) 3.2 Formulation of Kinase Buffer: 50 mM HEPES, pH 7.5, 0.0015% Brij-35, 10 mM MgCl2, and 2 mM DTT(dithiothreitol).
(§3) 3.3 Formulation of Termination Solution: 100 mM HEPES, pH 7.5, 0.015% Brij-35, 0.2% Coating Reagent #3 (prepared by Caliper workstation), and 50 mM EDTA (ethylene diamine tetraacetic acid).
(§4) 3.4.1 Formulation of a 50-fold concentration of a compound: for example, if the final concentration of the compound for assay is 12.5 nM, 50-fold concentration is 625 nM. The 50-fold concentration of the compound working solution was subjected to a 4-fold dilution with DMSO in a 96-well plate to obtain seven diluted concentrations in total.
(§5) 3.4.2 Transferring the 5-fold concentration of compound to a reaction plate: 10 μl solution was transferred from each well of the above-mentioned 96-well plate to another 96-well plate, and then 90 μl kinase buffer was added. 5 μl solution was transferred from the above 96-well plate to a 384-well reaction plate. […]
(§6) 3.6 The substrate conversion rate data was read with Caliper. […]
(§7) Inhibition rate %=(max-conversion rate)/(max-min)x100%, wherein max refers to the conversion rate of the DMSO control, min refers to the conversion of enzyme-free control. IC50 values were determined by the inhibition curve.

EGFR (L858R/T790M) = target: T3, EGFR (L858R/T790M) (Homo sapiens, UniProt P00533, L858R/T790M); assay: Inhibitory action on tyrosine kinase activity of mutant EGFR (L858R/T790M), Caliper; type: biochemical; details: kinase 10 nM, ATP 19 μM, polypeptide 3 μM, 60 min
T3 construct: purchased Invitrogen Corporation PR8911A
T3 sequence (P00533 25-1210 T790M/L858R): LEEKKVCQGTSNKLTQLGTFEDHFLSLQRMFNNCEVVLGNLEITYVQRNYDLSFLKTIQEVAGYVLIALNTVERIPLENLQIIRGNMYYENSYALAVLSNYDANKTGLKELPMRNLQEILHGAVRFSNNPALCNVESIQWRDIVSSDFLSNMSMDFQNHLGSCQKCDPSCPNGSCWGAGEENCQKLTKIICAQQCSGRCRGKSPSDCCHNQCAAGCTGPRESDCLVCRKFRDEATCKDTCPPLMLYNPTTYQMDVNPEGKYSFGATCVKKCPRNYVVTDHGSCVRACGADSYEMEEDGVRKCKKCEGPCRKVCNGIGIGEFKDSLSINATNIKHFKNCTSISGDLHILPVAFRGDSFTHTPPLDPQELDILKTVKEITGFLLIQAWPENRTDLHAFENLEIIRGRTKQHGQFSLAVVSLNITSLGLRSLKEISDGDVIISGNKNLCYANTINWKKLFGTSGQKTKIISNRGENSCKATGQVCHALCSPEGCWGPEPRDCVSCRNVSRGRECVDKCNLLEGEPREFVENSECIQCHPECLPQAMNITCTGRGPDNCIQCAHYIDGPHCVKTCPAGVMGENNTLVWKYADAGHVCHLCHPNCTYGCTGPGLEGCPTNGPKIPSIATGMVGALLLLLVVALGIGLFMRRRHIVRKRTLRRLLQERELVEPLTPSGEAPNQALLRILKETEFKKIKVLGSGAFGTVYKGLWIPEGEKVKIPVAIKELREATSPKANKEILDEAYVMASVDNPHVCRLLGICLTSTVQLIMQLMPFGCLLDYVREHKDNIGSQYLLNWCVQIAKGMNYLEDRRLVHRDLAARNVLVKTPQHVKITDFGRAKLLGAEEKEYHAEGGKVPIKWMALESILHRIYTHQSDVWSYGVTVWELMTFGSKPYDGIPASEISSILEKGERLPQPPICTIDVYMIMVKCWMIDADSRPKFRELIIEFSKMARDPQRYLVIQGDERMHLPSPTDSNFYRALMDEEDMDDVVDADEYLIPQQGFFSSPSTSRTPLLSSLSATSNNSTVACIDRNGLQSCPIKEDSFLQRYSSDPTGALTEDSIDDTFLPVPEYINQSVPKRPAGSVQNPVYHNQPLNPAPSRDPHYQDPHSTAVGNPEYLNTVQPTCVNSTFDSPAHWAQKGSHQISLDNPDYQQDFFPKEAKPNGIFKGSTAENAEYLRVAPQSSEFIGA
Experimental: EGFR(L858R/T790M): Invitrogen Corporation, catalogue No. PR8911A
as §1, §2, §3, §4, §5, §6, §7

[1] = system: salmonella typhimurium TA97, TA98, TA100, TA1535, and TA102; details: with or without S9; for mutagenicity on TA102 strain: doses of less than and equal to 150 μg/plate; for mutagenicity on TA97 strain: doses of less than and equal to 500 μg/plate; for mutagenicity on TA98, TA100 and TA1535 strains: doses of less than and equal to 1500 μg/plate
Experimental: Direct mutagen 1: Dexon (Dima Technology Inc.; Batch No.: 456-2D)
Indirect mutagen: 2-aminoanthracene, 2-AA (Sigma-Aldrich Inc.; Batch No.: STBB1901V)
Strains: histidine auxotrophic mutants of salmonella typhimurium TA97, TA98, TA100, TA1535, and TA102 (Institute of Laboratory Animal Science, Chinese Academy of Medical Sciences) are cryopreserved in liquid nitrogen.
Bacteria suspension cryopreserved in liquid nitrogen was quickly thawed in a 37° C. water bath. 100 μL bacteria suspension was withdrawn and seeded into 20 mL nutrient broth. After static culture in the dark at 37° C. for 16 h, the bacteria suspension was taken for mutagenicity assay.
The solution was filtered through a 0.22 μm filter membrane. 1.0 mL initial filtrate was discarded during filtrating. Then the filtrated test sample solution (15 mg/mL) was gradiently diluted with DMSO to solutions having the concentrations of 5, 1.5, 0.5 and 0.15 mg/mL.
The solution was filtered through a 0.22 μm filter membrane, 1.0 mL initial filtrate was discarded during filtrating. Then the filtrated test sample solution (15 mg/mL) was gradiently diluted with sterile water for injection to solutions having the concentrations of 5, 1.5, 0.5 and 0.15 mg/mL.
Dexon: an appropriate amount of Dexon was weighed and dissolved in sterile water for injection to obtain a solution with a concentration of 250 μg/mL. The solution was used after being filtered through 0.22 μm sterile filter membrane.
The solution was used after being filtered through 0.22 μm sterile filter membrane.
2-aminoanthracene: an appropriate amount of 2-aminoanthracene was weighed and dissolved in DMSO to obtain a solution with a concentration of 30 μg/mL. The solution was used after being filtered through 0.22 μm sterile filter membrane.
The Sprague-Dawley rat liver S9 fraction used in this assay was prepared on May 18, 2012 with Batch No.: 20120518. It was stored in liquid nitrogen and the protein concentration is 20.477 mg/mL, which can be used before May 17, 2014. Sterility test and biological activity detection met the requirements of the assay.
Before use, S9 mixture was formulated under sterile conditions. The formulated volume was determined by operator according to the requirements of the assay. Other solvents were formulated in accordance with the standard operating procedures of the Centre.
0.1 mL test article or control drug solution, 0.5 mL S9 mixture or PBS (pH7.4), and 2.0 mL top medium (containing about 0.05 mM histidine, about 0.05 mM biotin, about 0.6% agar, and about 0.5% NaCl) in sequence, and 0.1 mL bacteria culture solution finally were added into glass test tubes (10 mL). The mixture was rapidly mixed uniformly on a vortex mixer and poured into the surface of the bottom medium. The top medium was spread evenly over the surface of the basal medium by slight rotation.
The plates were placed on a horizontal table until the medium were solidified. Then the plates were inverted and cultured at 37° C. for 48 h (except for the TA102 strain, which was cultured for 72 h). The plates were withdrawn to count the number of visible revertant colonies per plate. The precipitation phenomenon of the test samples was observed when loading and at the end of culture. Three plates were tested for each group under activation and non-activation conditions, respectively.
If the results meet the following one or two criteria, it would be assessed as positive.

T1 sequence (P00533 25-1210): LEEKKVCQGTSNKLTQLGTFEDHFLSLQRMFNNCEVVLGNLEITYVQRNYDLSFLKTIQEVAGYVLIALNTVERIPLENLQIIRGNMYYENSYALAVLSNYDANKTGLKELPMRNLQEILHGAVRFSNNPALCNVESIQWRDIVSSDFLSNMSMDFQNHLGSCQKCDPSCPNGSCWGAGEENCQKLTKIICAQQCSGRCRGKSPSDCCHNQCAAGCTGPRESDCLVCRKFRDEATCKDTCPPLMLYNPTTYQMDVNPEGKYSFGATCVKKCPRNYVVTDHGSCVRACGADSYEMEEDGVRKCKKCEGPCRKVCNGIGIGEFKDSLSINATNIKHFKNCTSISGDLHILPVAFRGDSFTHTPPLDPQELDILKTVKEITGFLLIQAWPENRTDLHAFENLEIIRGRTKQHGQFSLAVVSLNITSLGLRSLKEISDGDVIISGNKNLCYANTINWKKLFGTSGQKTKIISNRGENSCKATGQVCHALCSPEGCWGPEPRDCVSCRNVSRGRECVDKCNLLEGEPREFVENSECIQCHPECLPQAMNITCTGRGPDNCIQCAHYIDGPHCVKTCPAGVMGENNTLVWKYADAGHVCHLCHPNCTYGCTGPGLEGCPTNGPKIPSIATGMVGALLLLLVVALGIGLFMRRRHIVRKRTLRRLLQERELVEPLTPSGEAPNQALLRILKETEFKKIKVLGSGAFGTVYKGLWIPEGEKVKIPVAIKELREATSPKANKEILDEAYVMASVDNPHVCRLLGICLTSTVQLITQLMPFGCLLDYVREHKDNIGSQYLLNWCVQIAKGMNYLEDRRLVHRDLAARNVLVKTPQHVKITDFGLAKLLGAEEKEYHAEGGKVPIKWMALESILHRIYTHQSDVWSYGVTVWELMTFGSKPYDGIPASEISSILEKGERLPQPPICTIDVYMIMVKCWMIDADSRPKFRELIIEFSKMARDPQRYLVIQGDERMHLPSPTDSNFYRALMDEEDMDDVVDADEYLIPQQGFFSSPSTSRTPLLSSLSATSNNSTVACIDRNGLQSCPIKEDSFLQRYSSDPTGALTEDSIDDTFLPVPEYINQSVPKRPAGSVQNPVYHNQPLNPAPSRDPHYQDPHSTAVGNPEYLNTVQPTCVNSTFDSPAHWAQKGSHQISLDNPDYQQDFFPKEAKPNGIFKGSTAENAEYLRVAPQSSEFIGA

Question: `COCCOc1cc2ncnc(Nc3ccc(F)c(Cl)c3)c2cc1NC(=O)C=C1CCN(CCOC)CC1` [Compound 1, N-[4-(3-chloro-4-fluorophenylamino)-7-(2-methoxyethoxy)quinazolin-6-yl]-2-[1-(2-methoxyethyl)piperidin-4-ylidene]acetamide] was tested. Which IC50 (EGFR) did it give?
Answer: 0.4 nM

Question: What about the IC50 (EGFR (L858R)) of the same compound?
Answer: 0.4 nM

Question: What about the IC50 (EGFR (L858R/T790M)) of the same compound?
Answer: 266 nM

Question: And the “mutagenicity on TA102 strain” value [1]?
Answer: no mutagenicity

Question: And the “mutagenicity on TA97 strain” value [1]?
Answer: no mutagenicity

Question: What about the “mutagenicity on TA98, TA100 and TA1535 strains” value [1] of the same compound?
Answer: no mutagenicity

Question: For `COCCOc1cc2ncnc(Nc3ccc(F)c(Cl)c3)c2cc1NC(=O)C=C1CCN(CCOC)CC1.Cl.Cl` [Compound 2, N-[4-(3-chloro-4-fluorophenylamino)-7-(2-methoxyethoxy)quinazolin-6yl]-2-[1-(2-methoxyethyl)piperidin-4-ylidene]acetamide dihydrochloride], which IC50 (EGFR) is on record?
Answer: 0.5 nM

Question: For `COCCOc1cc2ncnc(Nc3ccc(F)c(Cl)c3)c2cc1NC(=O)C=C1CCN(CCOC)CC1.CS(=O)(=O)O` [Compound 3, N-[4-(3-chloro-4-fluorophenylamino)-7-(2-methoxyethoxy)quinazolin-6-yl]-2-[1-(2-methoxyethyl)piperidin-4-ylidene]acetamide dimethylsulfonate], which IC50 (EGFR) is on record?
Answer: 0.4 nM

Question: What about the IC50 (EGFR (L858R)) of the same compound?
Answer: 0.45 nM

Question: What about the IC50 (EGFR (L858R/T790M)) of the same compound?
Answer: 235 nM

Question: And the “mutagenicity on TA102 strain” value [1]?
Answer: no mutagenicity

Question: And the “mutagenicity on TA97 strain” value [1]?
Answer: no mutagenicity

Question: What about the “mutagenicity on TA98, TA100 and TA1535 strains” value [1] of the same compound?
Answer: no mutagenicity

— patent publication US9840494B2, “Quinazoline derivative” (Tianjin Hemay Oncology Pharmaceutical Co., Ltd., priority 2013, dated 2017)
